Common to all, as to assay type: cell-based
One experiment has as its target adenosine A1 receptor (Homo sapiens (Human), UniProt P30542). The experiment can be described thus: Indirect determination of adenosine agonism by gene expression (luciferase reporter), A1 cells. Conditions: CHO cells stably transfected with adenosine A1 receptor; 1 μM forskolin; 50% inhibition of luciferase response. An excerpt: (§1) B-1. Indirect Determination of the Adenosine Agonism by Way of Gene Expression
(§2) Cells of the CHO (Chinese Hamster Ovary) permanent line are transfected stably with the cDNA for the adenosine receptor subtypes A1, A2a and A2b. The adenosine A1 receptors are coupled to the adenylate cyclase by way of Gi proteins, while the adenosine A2a and A2b receptors are coupled by way of Gs proteins. In correspondence with this, the formation of cAMP in the cell is inhibited or stimulated, respectively. After that, expression of the luciferase is modulated by way of a cAMP-dependent promoter. The luciferase test is optimized, with the aim of high sensitivity and reproducibility, low variance and good suitability for implementation on a robot system, by varying several test parameters, such as cell density, duration of the growth phase and the test incubation, forskolin concentration and medium composition. The following test protocol is used for pharmacologically characterizing cells and for the robot-assisted substance screening:
(§3) The stock cultures are grown, at 37° C. and under 5% CO2, in DMEM/F12 medium containing 10% FCS (fetal calf serum) and in each case split 1:10 after 2-3 days. Test cultures are seeded in 384-well plates with 2000 cells per well and grown at 37° C. for approx. 48 hours. The medium is then replaced with a physiological sodium chloride solution (130 mM sodium chloride, 5 mM potassium chloride, 2 mM calcium chloride, 20 mM HEPES, 1 mM magnesium chloride hexahydrate, 5 mM sodium bicarbonate, pH 7.4). The substances to be tested, which are dissolved in DMSO, are pipetted into the test cultures (maximum final concentration of DMSO in the test mixture: 0.5%) in a dilution series of from 5×10^−11 M to 3×10^−6 M (final concentration). 10 minutes later, forskolin is added to the A1 cells and all the cultures are subsequently incubated at 37° C. for four hours. After that, 35 μl of a solution which is composed of 50% lysis reagent (30 mM disodium hydrogenphosphate, 10% glycerol, 3% TritonX100, 25 mM TrisHCl, 2 mM dithiotreitol (DTT), pH 7.8) and 50% luciferase substrate solution (2.5 mM ATP, 0.5 mM luciferin, 0.1 mM coenzyme A, 10 mM tricine, 1.35 mM magnesium sulfate, 15 mM DTT, pH 7.8) are added to the test cultures, which are shaken for approx. 1 minute and the luciferase activity is measured using a camera system. The EC50 values are determined, i.e., the concentrations at which 50% of the luciferase response is inhibited in the case of the A1 cell, and, respectively, 50% of the maximum stimulation with the corresponding substance is achieved in the case of the A2b and A2a cells. […] Pharmacol., 357, 1-9 (1998)].
(§4) Table A below lists the EC50 values of representative working examples for the receptor stimulation on adenosine A1, A2a and A2b receptor subtypes: […]
(In general: Reporter assays use an easily measured gene product as a stand-in for the process of interest.)

A further experiment addresses adenosine A2a receptor (Homo sapiens (Human), UniProt P29274). In words: Indirect determination of adenosine agonism by gene expression (luciferase reporter), A2a cells. The note with it: CHO cells stably transfected with adenosine A2a receptor, 50% of maximum stimulation.
Source text: as §1, §2, §3, §4

In a further experiment the target is adenosine A2b receptor (Homo sapiens (Human), UniProt P29275). The experiment can be described thus: Indirect determination of adenosine agonism by gene expression (luciferase reporter), A2b cells. The note with it: CHO cells stably transfected with adenosine A2b receptor, 50% of maximum stimulation.
Source text: as §1, §2, §3, §4

Usually EC50 stands for the concentration giving half of the maximal effect. A lower EC50 goes with higher potency in that assay. One may read the pEC50 as −log10 of the EC50, conventionally taken in molar units. Read a high pEC50 as a small EC50.

SMILES strings stand for the structures. pEC50: −log10 of the molar value.

adenosine A2a receptor, sequence (P29274 whole entry): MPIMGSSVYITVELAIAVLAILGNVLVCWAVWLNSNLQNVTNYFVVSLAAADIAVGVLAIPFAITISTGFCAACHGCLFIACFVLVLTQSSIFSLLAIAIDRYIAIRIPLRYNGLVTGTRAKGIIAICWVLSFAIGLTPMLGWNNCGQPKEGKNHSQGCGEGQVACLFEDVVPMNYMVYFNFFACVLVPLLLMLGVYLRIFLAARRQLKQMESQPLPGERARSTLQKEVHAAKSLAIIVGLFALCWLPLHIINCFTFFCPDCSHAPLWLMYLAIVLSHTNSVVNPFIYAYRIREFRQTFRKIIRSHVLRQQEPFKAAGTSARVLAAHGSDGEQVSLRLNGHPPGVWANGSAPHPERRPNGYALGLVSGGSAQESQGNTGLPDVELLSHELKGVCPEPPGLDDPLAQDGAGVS
adenosine A1 receptor, sequence (P30542 whole entry): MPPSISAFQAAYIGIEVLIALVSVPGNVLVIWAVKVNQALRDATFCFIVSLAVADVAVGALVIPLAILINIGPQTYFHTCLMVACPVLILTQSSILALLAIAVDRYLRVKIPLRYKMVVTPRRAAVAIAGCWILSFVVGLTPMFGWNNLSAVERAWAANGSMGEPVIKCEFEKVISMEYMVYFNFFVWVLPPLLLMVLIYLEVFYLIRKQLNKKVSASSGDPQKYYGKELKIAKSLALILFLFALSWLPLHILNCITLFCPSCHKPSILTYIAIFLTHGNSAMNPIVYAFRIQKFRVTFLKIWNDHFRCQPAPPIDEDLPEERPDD
adenosine A2b receptor, sequence (P29275 whole entry): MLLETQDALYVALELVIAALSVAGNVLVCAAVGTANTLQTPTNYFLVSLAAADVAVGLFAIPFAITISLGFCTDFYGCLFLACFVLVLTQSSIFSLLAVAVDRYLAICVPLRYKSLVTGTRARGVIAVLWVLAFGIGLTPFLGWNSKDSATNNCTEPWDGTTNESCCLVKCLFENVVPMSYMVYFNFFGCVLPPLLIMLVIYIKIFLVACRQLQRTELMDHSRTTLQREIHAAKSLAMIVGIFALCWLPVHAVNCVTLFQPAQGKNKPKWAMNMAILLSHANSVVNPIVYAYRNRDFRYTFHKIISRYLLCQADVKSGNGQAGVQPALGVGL

`CNC(=O)c1cc(C(C)Sc2nc(N)c(C#N)c(-c3ccc(OCC(F)(F)F)cc3)c2C#N)ccn1` (racemic) [Example 56, rac-4-[1-({6-Amino-3,5-dicyano-4-[4-(2,2,2-trifluoroethoxy)phenyl]pyridin-2-yl}sulfanyl)ethyl]-N-methylpyridine-2-carboxamide] returned an EC50 at adenosine A1 receptor of 2.8 nM. Also, the pEC50 at adenosine A2a receptor and at adenosine A2b receptor was at most 5.52 throughout.

As to `CC(Sc1nc(N)c(C#N)c(-c2ccc(OCCO)cc2)c1C#N)c1cccc(C(N)=O)c1` (racemic) [Example 60, rac-3-[1-({6-Amino-3,5-dicyano-4-[4-(2-hydroxyethoxy)phenyl]pyridin-2-yl}sulfanyl)ethyl]-benzenecarboxamide], on adenosine A1 receptor, the EC50 amounted to 0.4 nM. The pEC50 at adenosine A2a receptor is at most 5.52; at adenosine A2b receptor, 5.84.

The compound `CNC(=O)c1cccc(C(C)Sc2nc(N)c(C#N)c(-c3ccc(OCCO)cc3)c2C#N)c1` (racemic) [Example 62, rac-3-[1-({6-Amino-3,5-dicyano-4-[4-(2-hydroxyethoxy)phenyl]pyridin-2-yl}sulfanyl)ethyl]-N-methylbenzenecarboxamide] displayed an EC50 on adenosine A1 receptor of 0.3 nM. In addition, the pEC50 on adenosine A2a receptor was at most 5.52; at adenosine A2b receptor, 6.58.

Compound `CNC(=O)c1cc(CSc2nc(N)c(C#N)c(-c3ccc(F)cc3)c2C#N)ccn1` [Example 2] came in with an EC50 on adenosine A1 receptor of 0.3 nM.

In turn, `CNC(=O)c1cc(CSc2nc(N)c(C#N)c(-c3ccc(OC)cc3)c2C#N)ccn1` [Example 3] registered an EC50 on adenosine A1 receptor of 0.2 nM. The pEC50 at adenosine A2a receptor was 6.37.

For `CNC(=O)c1cc(CSc2nc(N)c(C#N)c(-c3ccc4c(c3)OCCO4)c2C#N)ccn1` [Example 6], the response at adenosine A1 receptor was half-maximal at 0.06 nM (EC50). At adenosine A2b receptor, the pEC50 was 7.15.

As for `CNC(=O)c1cc(CSc2nc(N)c(C#N)c(-c3ccc(OCC(C)(C)O)cc3)c2C#N)ccn1` [Example 7], the response on adenosine A1 receptor was half-maximal at 0.1 nM (EC50). Moreover, the pEC50 on adenosine A2a receptor was 6.34; at adenosine A2b receptor it was 7.49.

`N#Cc1c(N)nc(SCc2cccc(C(=O)O)c2)c(C#N)c1-c1ccc(F)cc1` [Example 14, 3-({[6-amino-3,5-dicyano-4-(4-fluorophenyl)pyridin-2-yl]sulfanyl}methyl)-benzenecarboxylic acid] showed an EC50 at adenosine A1 receptor of 3.5 nM. This counts as single-digit nanomolar.

`N#Cc1cnc(SCc2cccc(C(=O)O)c2)c(C#N)c1-c1ccccc1` [Example 15] showed an EC50 on adenosine A1 receptor of 0.8 nM. The pEC50 at adenosine A2b receptor was 6.97.

As to `CNC(=O)c1cc(COc2nc(N)c(C#N)c(-c3ccc(F)cc3)c2C#N)ccn1` [Example 21, 4-({[6-Amino-3,5-dicyano-4-(4-fluorophenyl)pyridin-2-yl]oxy}methyl)-N-methylpyridine-2-carboxamide], the EC50 on adenosine A1 receptor stood at 0.9 nM.

At adenosine A1 receptor, `CCOc1ccc(-c2c(C#N)c(N)nc(SCc3ccnc(C(=O)NC)c3)c2C#N)cc1` [Example 26] returned a 50% effective concentration (EC50) of 0.2 nM. The pEC50 on adenosine A2a receptor is 7.19; at adenosine A2b receptor, 6.61.

The compound `CNC(=O)c1cc(CSc2nc(N)c(C#N)c(-c3ccc(F)c(OC)c3)c2C#N)ccn1` [Example 27] returned an EC50 at adenosine A1 receptor of 0.3 nM.

Compound `CNC(=O)c1cc(CSc2nc(N)c(C#N)c(-c3ccc(NC)cc3)c2C#N)ccn1` [Example 28] came in with an EC50 at adenosine A1 receptor of 0.4 nM. The pEC50 at adenosine A2a receptor is 5.79.

For the compound `CNC(=O)c1cc(CSc2nc(N)c(C#N)c(-c3cccc(OCCO)c3)c2C#N)ccn1` [Example 29], on adenosine A1 receptor, it took 0.5 nM to reach a half-maximal effect (EC50).

Turning to `CNC(=O)c1cc(CSc2ncc(C#N)c(-c3ccccc3)c2C#N)ccn1` [Example 32], the EC50 at adenosine A1 receptor is 0.4 nM. Moreover, the pEC50 at adenosine A2b receptor was 5.67.

The compound `CS(=O)(=O)Nc1cccc(CSc2nc(N)c(C#N)c(-c3ccc(F)cc3)c2C#N)c1` [Example 37] registered a half-maximal effective concentration (EC50) at adenosine A1 receptor of 0.7 nM. This compound also gave a negative logarithm of the EC50 (pEC50) at adenosine A2a receptor of 5.75.

On adenosine A1 receptor, `CS(=O)(=O)Nc1cccc(CSc2nc(N)c(C#N)c(-c3ccc(F)c(F)c3)c2C#N)c1` [Example 38] showed an EC50 of 0.5 nM.

Consider `CNC(=O)c1cc(CSc2nc(N)c(C#N)c(-c3ccc(OC)cc3OC)c2C#N)ccn1` [Example 44], for which, at adenosine A1 receptor, the EC50 was 0.4 nM.

`CCCOc1cccc(-c2c(C#N)c(N)nc(SCc3ccnc(C(=O)NC)c3)c2C#N)c1` [Example 49]: the EC50 at adenosine A1 receptor amounted to 0.3 nM. The EC50 values of the last two compounds are within 1.5-fold of each other.

The compound `CNC(=O)c1cc(CSc2nc(N)c(C#N)c(-c3ccc(F)c(C(F)(F)F)c3)c2C#N)ccn1` [Example 50] displayed an EC50 at adenosine A1 receptor of 0.5 nM.

`CNC(=O)c1cc(CSc2nc(N)c(C#N)c(-c3cc(F)cc(F)c3)c2C#N)ccn1` [Example 51] came in with an EC50 on adenosine A1 receptor of 0.2 nM.

Compound `CNC(=O)c1cc(CSc2nc(N)c(C#N)c(-c3ccc(F)c(F)c3)c2C#N)ccn1` [Example 53] registered an EC50 at adenosine A1 receptor of 0.3 nM.

At adenosine A1 receptor, `N#Cc1cnc(SCc2cccc(C(N)=O)c2)c(C#N)c1-c1ccccc1` [Example 65, 3-{[(3,5-Dicyano-4-phenylpyridin-2-yl)sulfanyl]methyl}benzenecarboxamide] yielded an EC50 of 3.3 nM. The compound further had a negative-log EC50 (pEC50) on adenosine A2b receptor of 6.24.

The compound `N#Cc1cnc(SCc2cccc(C(=O)NCCO)c2)c(C#N)c1-c1ccccc1` [Example 66, 3-{[(3,5-Dicyano-4-phenylpyridin-2-yl)sulfanyl]methyl}-N-(2-hydroxyethyl)benzenecarboxamide] returned an EC50 at adenosine A1 receptor of 1.3 nM.

Turning to `CNC(=O)c1cc(CSc2nc(N3CC(O)C3)c(C#N)c(-c3ccc(OC)cc3)c2C#N)ccn1` [Example 72], the EC50 on adenosine A1 receptor stood at 0.5 nM.

Take `CNC(=O)c1cc(CSc2nc(N3CC(O)C3)c(C#N)c(-c3ccc(F)c(F)c3)c2C#N)ccn1` [Example 74]: the half-maximal effective concentration (EC50) at adenosine A1 receptor was determined as 2.4 nM.

As to `CNC(=O)c1cc(CSc2nc(N3CC[C@@H](O)C3)c(C#N)c(-c3ccc4c(c3)OCCO4)c2C#N)ccn1` [Example 82], at adenosine A1 receptor, the EC50 worked out at 0.2 nM. The compound further had a pEC50 at adenosine A2a receptor of 5.70.

For `CNC(=O)c1cc(CSc2nc(NCCO)c(C#N)c(-c3ccc(OC)cc3)c2C#N)ccn1` [Example 84], the EC50 on adenosine A1 receptor was determined as 0.4 nM.

In the case of `N#Cc1c(SCc2ccnc(C(=O)NC3CC3)c2)nc(N2CCCC2)c(C#N)c1-c1ccccc1` [Example 85], on adenosine A1 receptor, it took 0.5 nM to reach a half-maximal effect (EC50). At adenosine A2a receptor, this compound showed a pEC50 of 5.99.

Compound `CNC(=O)c1cc(CSc2nc(NCC(O)C(F)(F)F)c(C#N)c(-c3ccccc3)c2C#N)ccn1` (stereo not shown) [Example 87] gave an EC50 at adenosine A1 receptor of 0.6 nM.

At adenosine A1 receptor, `CNC(=O)c1cc(CSc2nc(NCCO)c(C#N)c(-c3ccccn3)c2C#N)ccn1` [Example 88] registered a 50% effective concentration (EC50) of 0.7 nM. The same compound had a pEC50 on adenosine A2a receptor of 5.70.

`CNC(=O)c1cc(COc2nc(N3CC(O)C3)c(C#N)c(-c3ccccc3)c2C#N)ccn1` [Example 93, 4-({[3,5-Dicyano-6-(3-hydroxyazetidin-1-yl)-4-phenylpyridin-2-yl]oxy}methyl)-N-methylpyridine-2-carboxamide] returned an EC50 on adenosine A1 receptor of 0.9 nM.

For the compound `CNC(=O)c1cccc(CSc2nc(N3CC[C@@H](O)C3)c(C#N)c(-c3ccc(OCCO)cc3)c2C#N)c1` [Example 94, 3-[({3,5-Dicyano-4-[4-(2-hydroxyethoxy)phenyl]-6-[(3R)-3-hydroxypyrrolidin-1-yl]pyridin-2-yl}-sulfanyl)methyl]-N-methylbenzenecarboxamide], it took 0.2 nM to reach a half-maximal effect on adenosine A1 receptor (EC50).

On adenosine A1 receptor, `N#Cc1c(N)nc(SCc2cccc(C(=O)NC[C@@H](O)CO)c2)c(C#N)c1-c1ccc(F)cc1` [Example 96, 3-({[6-Amino-3,5-dicyano-4-(4-fluorophenyl)pyridin-2-yl]sulfanyl}methyl)-N-[(2R)-2,3-dihydroxypropyl]benzenecarboxamide] displayed an EC50 of 0.4 nM. This compound also had a pEC50 on adenosine A2b receptor of 6.69.

The values are drawn from patent US9187428B2, “Substituted dicyanopyridines and use thereof” (Bayer Intellectual Property GmbH, priority 2010, dated 2015).
